Assay: Solubility of benzoyl peroxide in organic solvents by HPLC analysis
Type: physicochemical
Settings: room temperature
Description: An example of a preferred organic solvent for the formulation of the invention is a polyol, also known as a polyhydric alcohol. Representative examples of polyols include glycols and sugar alcohols. Preferred polyols for the formulation of the invention include polyether glycols, such as ethoxydiglycol, and propylene glycol. A preferred water-miscible organic solvent is propylene glycol. The inventors have determined by HPLC analysis that benzoyl peroxide is soluble in 100% propylene glycol at room temperature at a level between 0.2% and 0.3% w/w. A second preferred organic solvent is ethoxydiglycol, such as sold under the tradename Transcutol® (Gattefosse, Saint-Priest, France). It has been determined by HPLC analysis that benzoyl peroxide is soluble in ethoxydiglycol at room temperature at a level of about 4.9%. Another preferred organic solvent is polyethylene glycol, such as PEG 400.

Compound: O=C(OOC(=O)c1ccccc1)c1ccccc1 [benzoyl peroxide]
- Solubility of benzoyl peroxide in ethoxydiglycol: about 4.9%

Source: patent publication US11478498B2, “Topical pharmaceutical formulations containing a low concentration of benzoyl peroxide in suspension in water and a water-miscible organic solvent” (Dow Pharmaceutical Sciences, Inc., priority 2008, dated 2022)
